Assay results as given in US6555576B1, “Method for treating exercise induced asthma” (SmithKline Beecham Corporation, priority 1999, dated 2003).

Key:
[1] = target: T1, high affinity rolipram binding site of PDE 4 (HPDE 4); test: [3H]-rolipram binding assay (high affinity site); settings: competition with 1 nM [3H]-rolipram, rat brain high speed supernatants, 1 hour at 30° C.
T1 construct: Rat brain high speed supernatants were used as a source of protein
Procedure: Rat brain high speed supernatants were used as a source of protein. […] The assay was run for 1hour at 30° C. The reaction was terminated and bound ligand was separated from free ligand using a Brandel cell harvester. Competition for the high affinity binding site was assessed under conditions that were identical to those used for measuring low affinity PDE activity, expect that [^3H]-cAMP was not present.

[2] = system: low affinity form of PDE 4 (LPDE 4); test: PDE 4 catalytic activity assay (low affinity form); assay type: biochemical, human; settings: HPDE 4 IC50 divided by LPDE 4 IC50
Procedure: Consequently, inhibition of recombinant PDE 4 catalytic activity primarily reflects the actions of compounds at LPDE 4. Inhibition of PDE 4 catalytic activity can thus be used as an index of the potency of compounds at LPDE 4.
Isolated human monocyte PDE 4 and hrPDE 4 was determined to exist primarily in the low affinity form.

[3] = system: acid secretion; settings: rats, particularly in combination with an activator of adenylate cyclase such as histamine; cited from earlier work
[4] = system: patients with EIA; test: Exercise challenge study in patients with EIA; assay type: in vivo, human
Procedure: A randomized, double-blind, placebo-controlled, two-period cross-over study was conducted to assess the efficacy, safety and tolerability of cis-[4-cyano-4-(3-cyclopentyloxy-4-methoxyphenyl)cyclohexan-1-carboxylate] in patients with EIA. 27 patients with EIA were randomized to receive the compound, 10 mg BID immediate release tablet or placebo, for 7 days followed by a 7 day washout and the alternate treatment for 7 days. Exercise challenge tests were performed after a single dose on day 1, and again on day 7 (pre-dose and three hours post-dose).
The patient population consisted of non-smoking men or women, ages 18 to 60 years with EIA such that:
a) their forced expiratory volume in one second (FEV1) was greater than or equal to 70% of predicted normal,
b) the documented fall in FEV1 was greater than or equal to 15% in response to exercise testing at a screening visit, and
c) they were not taking inhaled corticosteroids or other controller medications for asthma.
The Exercise Challenge Protocol was as follows. Patients were exercised on a motorized treadmill for six minutes at target heart rate. Speed and inclination were adjusted to achieve a target heart rate for each patient of 85% of age-adjusted maximum predicted. Patients breathed compressed air (0% humidity at room temperature) during the test through a face mask. Pulmonary function tests (KoKo pneumotach) were performed 1, 5, 10, 15, 20, 30 and 45 minutes after completion of the test and continued thereafter if FEV1 had not returned to within 10% of the baseline.
The primary efficacy variable was the maximum percentage decrease (MPD) in the FEV1 in response to exercise. The results indicated significant improvement in MPD FEV1 after one dose of the compound, from a mean MPD of 32.88% to 23.57%. There was an incremental effect of the compound after 7 days of dosing with further improvement in mean MPD FEV1 to 21.8%. […] See also, Am. J. Resp. Crit. Care Med. 1998:157; A413, incorporated herein in its entirety by reference.

[5] = human, in vivo; cited from earlier work

## COc1ccc(C2CN(Cc3ccc(N)cc3)C(=O)N2)cc1OC1CCCC1 (stereo not drawn) [1-(4-aminobenzyl)-4-(3-cyclopentyloxy-4-methoxyphenyl)-2-imidazolidinone]
[1]
  IC50: 100 nM
[2]
  High/Low Ratio (IC50 high affinity / IC50 low affinity): 0.07

## COc1ccc(C2CCC(c3nnn[nH]3)C2)cc1OC1CCCC1 (stereo not drawn) [1-(5-tetrazole)-3-(3-cyclopentyloxy-4-methoxyphenyl)cyclopentane]
[2]
  High/Low Ratio (IC50 high affinity / IC50 low affinity): 0.0018

## COc1ccc(C2CCN(Cc3ccc(NC(=NC#N)SC)cc3)C2=O)cc1OC1CCCC1 (stereo not drawn) [3-(cyclopentyl-oxy-4-methoxyphenyl)-1-(4-N′-[N2-cyano-S-methyl-isothioureido]benzyl)-2-pyrrolidone]
[2]
  High/Low Ratio (IC50 high affinity / IC50 low affinity): 0.30

## CCOC(=O)C=C1C[C@H](c2ccc(OC)c(OC3CCCC3)c2)CN1 [(R)-(+)-ethyl [4-(3-cyclopentyloxy-4-methoxyphenyl)pyrrolidine-2-ylidene]acetate]
[2]
  High/Low Ratio (IC50 high affinity / IC50 low affinity): 2.143

## CCOC(=O)C=C1C[C@@H](c2ccc(OC)c(OC3CCCC3)c2)CN1 [(S)-(−)-ethyl [4-(3-cyclopentyloxy-4-methoxyphenyl)pyrrolidine-2-ylidene]acetate]
[2]
  High/Low Ratio (IC50 high affinity / IC50 low affinity): .98

## CC(C)Cn1c(=O)n(C)c(=O)c2[nH]cnc21 [IBMX, reference compound]
[2]
  High/Low Ratio (IC50 high affinity / IC50 low affinity): 0.698

## NC(=O)C(=O)NCCc1ccc(OC(F)F)c(OC(F)F)c1 [N-[2-(3,4-bisdifluoromethoxy-phenyl)ethyl]oxamide]
[1]
  IC50: 400 nM
[2]
  High/Low Ratio (IC50 high affinity / IC50 low affinity): 0.25

## COc1ccc(CCNC(=O)C(N)=O)cc1OC1CCCC1 [N-[2-(3-cyclopentyloxy-4-methoxyphenyl)ethyl]oxamide]
[2]
  High/Low Ratio (IC50 high affinity / IC50 low affinity): 0.013

## CCCCOc1cc(CC2CNC(=O)N2)ccc1OC (stereo not drawn) [Ro 20-1724, reference compound]
[1]
  IC50: 190 nM
[3]
  effect on acid secretion: enhance acid secretion

## COc1ccc(C2(C#N)CCC(C(=O)O)CC2)cc1OC1CCCC1 (stereo not drawn) [cis-[4-cyano-4-(3-cyclopentyloxy-4-methoxyphenyl)cyclohexan-1-carboxylate]]
[4]; 10 mg BID for 7 days, patients with EIA
  safety and tolerability: safe and well tolerated, with no treatment-related serious adverse experiences or withdrawals
[4]; administered to humans suffering from EIA
  effects in humans suffering from EIA: reduced inflammation, bronchodilation and pulmonary neuromodulation
[4]; after 7 days of dosing, 10 mg BID
  mean maximum percentage decrease (MPD) in FEV1 in response to exercise: 21.8%
[4]; after one dose, 10 mg immediate release tablet, improved from mean MPD of 32.88%
  mean maximum percentage decrease (MPD) in FEV1 in response to exercise: 23.57%
[4]; after one week of treatment, 10 mg BID
  patients with a fall in FEV1 of less than or equal to 15% after exercise: 40%

## CCCCn1c(=O)c2c(ncn2CC(C)=O)n(CCCC)c1=O [denbufylline, 7-acetonyl, 1,3-dibutyixanthine]
[5]
  side effects in clinical studies: may include pyrosis, nausea and emesis

## OCCN(CCO)c1nc(N2CCCCC2)c2nc(N(CCO)CCO)nc(N3CCCCC3)c2n1 [dipyridamole, 2,2′,2″,2′-[(4,8-dipiperldinopyrimido[5,4-d]pyrmidine-2-6-diyl)dinitrilo]tetraethanol, reference compound]
[2]
  High/Low Ratio (IC50 high affinity / IC50 low affinity): 6.25

## COc1ccc(C2CNC(=O)C2)cc1OC1CCCC1 (stereo not drawn) [rolipram]
[5]
  side effects in clinical studies: has psychotropic activity and produces gastrointestinal effects, e.g., pyrosis, nausea and emesis
[3]
  effect on acid secretion: enhance acid secretion
